Laboratory results published in patent publication US8217031B2, “Heteroaryl derivatives” (Nippon Shinyaku Co., Ltd., priority 2007, dated 2012).
pKi: −log10 of the molar value. Counter-ions that a name gives are not always drawn.

Tests used:
[1] = molecular target: T1, [3H]norepinephrine re-uptake in synaptosome (Rattus norvegicus, UniProt Q9WTR4); experiment: Inhibition of norepinephrine reuptake in rat cerebral cortex synaptosome; type: biochemical; settings: Ki calculated from IC50 and Kd, read-out: Norepinephrine Reuptake Inhibiting Activity, Ki value
T1 construct: to give a synaptosome solution; from tissue; host or cells: rat cerebral cortex synaptosomes (male SD rats)
T1 sequence (Q9WTR4 1-597): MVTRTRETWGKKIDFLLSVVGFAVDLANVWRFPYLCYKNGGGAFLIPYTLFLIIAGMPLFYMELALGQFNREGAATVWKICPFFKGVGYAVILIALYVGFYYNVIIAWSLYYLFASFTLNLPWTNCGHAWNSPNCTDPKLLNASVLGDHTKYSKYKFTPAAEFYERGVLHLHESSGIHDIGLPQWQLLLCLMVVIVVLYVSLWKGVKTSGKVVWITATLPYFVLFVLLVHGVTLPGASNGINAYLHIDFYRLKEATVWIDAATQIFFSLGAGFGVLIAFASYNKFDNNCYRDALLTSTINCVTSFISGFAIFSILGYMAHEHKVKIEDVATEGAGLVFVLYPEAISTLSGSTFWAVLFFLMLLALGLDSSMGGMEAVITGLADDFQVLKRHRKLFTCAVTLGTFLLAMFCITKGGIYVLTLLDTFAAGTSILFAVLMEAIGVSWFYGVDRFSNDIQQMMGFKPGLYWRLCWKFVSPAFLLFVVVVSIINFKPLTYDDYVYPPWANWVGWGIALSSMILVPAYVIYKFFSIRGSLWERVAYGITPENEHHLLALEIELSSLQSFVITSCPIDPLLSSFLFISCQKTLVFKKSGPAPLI
Method: (§1) Experiments for Inhibition of Serotonin Reuptake and Experiments for Inhibition of Norepinephrine Reuptake
(§2) Cerebral cortex of male SD rats (JAPAN SLC Inc.), over six weeks of age was excised and a 0.32M sucrose solution was added thereto in an amount of 10 mL per gram of the cerebral cortex followed by homogenizing. The homogenized solution was centrifuged, the supernatant thereof was further centrifuged at high speed and, to the resulting pellets, a PSS solution (pH 7.4; comprising 150 mM of NaCl, 4 mM of KCl, 1 mM of MgCl2, 2.5 mM of HEPES, 0.9 mg/mL of glucose, 0.176 mg/mL of ascorbic acid and 1 mM of pargylin) was added in an amount of 10 mL per gram of the pellets to give a synaptosome solution. A compound to be tested (100 μL) was added to 100 μL of the synaptosome solution and 700 μL of a 50 mM Tris buffer (pH 7.4; trihydroxylaminomethane) followed by subjecting to pre-incubation at 37° C. for 5 minutes. After the pre-incubation, 100 μL of [^3H]serotonin or [^3H]norepinephrine diluted to 10 nM and 20 nM, respectively, with a Tris buffer was added thereto followed by incubating at 37° C. for 5 minutes.
(§3) Synaptosome was recovered on a GF/B filter using a cell harvester and further washed three times using a washing solution (50 mM Tris buffer; pH 7.4; 4° C.). The filter was transferred to a vial, a scintillator was added thereto and the radiation activity was measured using a liquid scintillation counter.
(§4) Incidentally, the non-specific reaction was defined as the radiation activity under ice-cooling (4° C.) and the difference between the total radiation activity and the radiation activity under the non-specific reaction was adopted as the radiation activity specifically re-uptaken in the synaptosome. IC50 value was determined from the re-uptake inhibition rate in the presence of a test compound and, from IC50 value and the Kd value of [^3H]serotonin or [^3H]norepinephrine, Ki value of the test compound showing a re-uptake inhibiting activity of serotonin or norepinephrine, respectively, was calculated.

rats under anesthesia = experiment: Measurement of urine leak point pressure in rats under anesthesia; type: in vivo, rat; settings: intravenous administration of not more than 10 mg/kg; female rats, urethane anesthesia, thoracic spine cut at T8 to T9
Method: Measurement of Urine Leak Point Pressure in Rats Under Anesthesia Under anesthesia with urethane (1.2 g/kg; subcutaneous administration), the thoracic spine of female rats of 8 to 12 weeks of age (Japan SLC Inc.) was cut at the level of T8 to T9 so that the micturition reflex was made to disappear, then the abdomen was subjected to a median incision to expose the bladder and then a cannula was inserted into the bladder. An appropriate amount (ca. 0.4 mL) of a physiological saline was previously infused into the bladder, both sides of the bladder were gradually pressed with two cotton buds and the inner pressure of the bladder when the physiological saline solution leaked out from the urethral orifice was measured as a pressure upon leakage of urine. The measurement was repeated several times until the measured values became stable and, after that, the test compound was intravenously administered and a pharmacological effect of the test compound was evaluated.

[2] = molecular target: T2, [3H]serotonin re-uptake in synaptosome (Rattus norvegicus, UniProt P31652); experiment: Inhibition of serotonin reuptake in rat cerebral cortex synaptosome; type: biochemical; settings: Ki calculated from IC50 and Kd, read-out: Serotonin Reuptake Inhibiting Activity, Ki value
T2 construct: to give a synaptosome solution; from tissue; host or cells: rat cerebral cortex synaptosomes (male SD rats)
T2 sequence (P31652 whole entry): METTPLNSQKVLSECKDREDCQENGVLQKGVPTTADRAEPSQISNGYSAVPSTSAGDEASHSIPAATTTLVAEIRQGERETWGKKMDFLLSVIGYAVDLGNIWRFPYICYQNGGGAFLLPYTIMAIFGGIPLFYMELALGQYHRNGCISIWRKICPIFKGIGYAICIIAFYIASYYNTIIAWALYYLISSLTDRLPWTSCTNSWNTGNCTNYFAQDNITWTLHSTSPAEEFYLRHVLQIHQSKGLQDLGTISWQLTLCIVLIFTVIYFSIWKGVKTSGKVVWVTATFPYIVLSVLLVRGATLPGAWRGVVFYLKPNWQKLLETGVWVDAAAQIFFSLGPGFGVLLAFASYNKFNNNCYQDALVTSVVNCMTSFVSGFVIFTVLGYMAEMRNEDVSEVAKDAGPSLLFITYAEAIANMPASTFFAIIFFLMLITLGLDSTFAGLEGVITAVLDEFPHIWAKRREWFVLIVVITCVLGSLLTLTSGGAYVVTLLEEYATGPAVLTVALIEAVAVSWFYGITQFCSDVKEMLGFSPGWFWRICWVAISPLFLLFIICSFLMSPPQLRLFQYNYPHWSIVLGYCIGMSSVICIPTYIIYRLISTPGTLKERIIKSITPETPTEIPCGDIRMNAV
Method: as §1, §2, §3, §4

Row | pKi [1] | pKi [2] | Structure (SMILES) | leak point pressure (pressure upon leakage of urine) (rats under anesthesia)
1 | 8.25 | 8.77 | CN1CCC(Oc2cccc(Br)c2Cl)c2ccoc2C1.Cl (single isomer, unassigned; (+)) [Example 398, (+)-4-(3-Bromo-2-chlorophenyloxy)-7-methyl-5,6,7,8-tetrahydro-4H-furo[2,3-c]azepine hydrochloride] | raised the leak point pressure
2 | 8.62 | 9.30 | CN1CCC(Oc2cccc(Cl)c2Cl)c2ccoc2C1.Cl (single isomer, unassigned; (+)) [Example 400, (+)-4-(2,3-Dichlorophenyloxy)-7-methyl-5,6,7,8-tetrahydro-4H-furo[2,3-c]azepine hydrochloride] | raised the leak point pressure
3 | 8.49 | 9.00 | Cc1cc2c(o1)CN(C)CCC2Oc1cccc2ccccc12.Cl (single isomer, unassigned; (+)) [Example 401, (+)-2,7-Dimethyl-4-(naphthalen-1-yloxy)-5,6,7,8-tetrahydro-4H-furo[2,3-c]azepine hydrochloride] | raised the leak point pressure
4 | 7.15 | 8.92 | CN1CCC(Oc2ccc(Cl)c3ccccc23)c2sccc2C1 (stereo not shown) [Example 115, 8-(4-Chloronaphthalen-1-yloxy)-5-methyl-5,6,7,8-tetrahydro-4H-thieno[3,2-c]azepine hydrochloride] | –
5 | – | 8.27 | Cc1cc2c(s1)CN(C)CCC2Oc1ccc(Br)c(Br)c1 (stereo not shown) [Example 135, 4-(3,4-Dibromophenyloxy)-2,7-dimethyl-5,6,7,8-tetrahydro-4H-thieno[2,3-c]azepine hydrochloride] | –
6 | 8.08 | 8.39 | Cc1cc2c(o1)CN(C)CCC2Oc1cccc2ccccc12 (stereo not shown) [Example 140, 2,7-Dimethyl-4-(naphthalen-1-yloxy)-5,6,7,8-tetrahydro-4H-furo[2,3-c]azepine] | –
7 | 8.70 | 8.68 | Cc1cc2c(s1)CN(C)CCC2Oc1cccc(Cl)c1Cl (stereo not shown) [Example 148, 4-(2,3-Dichlorophenyloxy)-2,7-dimethyl-5,6,7,8-tetrahydro-4H-thieno[2,3-c]azepine hydrochloride] | –
8 | 8.77 | 8.74 | CN1CCC(Oc2cccc(Cl)c2Cl)c2ccsc2C1 (stereo not shown) [Example 149, 4-(2,3-Dichlorophenyloxy)-7-methyl-5,6,7,8-tetrahydro-4H-thieno[2,3-c]azepine hydrochloride] | –
9 | 7.24 | 8.17 | CN1CCC(Oc2cccc3ccccc23)c2occc2C1 (stereo not shown) [Example 157, 5-Methyl-8-(naphthalen-1-yloxy)-5,6,7,8-tetrahydro-4H-furo[3,2-c]azepine] | –
10 | 7.92 | 8.42 | Cc1cc2c(o1)CN(C)CCC2Oc1cccc(Cl)c1Cl (stereo not shown) [Example 163, 4-(2,3-Dichlorophenyloxy)-2,7-dimethyl-5,6,7,8-tetrahydro-4H-furo[2,3-c]azepine] | –
11 | 7.62 | 8.18 | CN1CCC(Oc2cccc(Cl)c2Cl)c2occc2C1 (stereo not shown) [Example 168, 8-(2,3-Dichlorophenyloxy)-5-methyl-5,6,7,8-tetrahydro-4H-furo[3,2-c]azepine] | –
12 | 7.56 | 8.51 | CN1CCC(Oc2cccc(Br)c2Cl)c2ccoc2C1 (stereo not shown) [Example 177, 4-(3-Bromo-2-chlorophenyloxy)-7-methyl-5,6,7,8-tetrahydro-4H-furo[2,3-c]azepine] | –
13 | 7.61 | 9.00 | CN1CCC(Oc2cccc3ccccc23)c2ccoc2C1 (stereo not shown) [Example 179, 7-Methyl-4-(naphthalen-1-yloxy)-5,6,7,8-tetrahydro-4H-furo[2,3-c]azepine hydrochloride] | –
14 | 7.67 | 8.77 | Cc1cc2c(o1)CN(C)CCC2Oc1cccc(Br)c1Cl (stereo not shown) [Example 200, 4-(3-Bromo-2-chlorophenyloxy)-2,7-dimethyl-5,6,7,8-tetrahydro-4H-furo[2,3-c]azepine] | –
15 | 8.39 | 9.05 | CN1CCC(Oc2cccc(Cl)c2Cl)c2ccoc2C1 (stereo not shown) [Example 213, 4-(2,3-Dichlorophenyloxy)-7-methyl-5,6,7,8-tetrahydro-4H-furo[2,3-c]azepine hydrochloride] | –
16 | 7.93 | 7.74 | CN1CCC(Oc2ccc(C(N)=O)cc2Cl)c2ccoc2C1 (stereo not shown) [Example 225, 4-(2-Chloro-4-carbamoylphenyloxy)-7-methyl-5,6,7,8-tetrahydro-4H-furo[2,3-c]azepine hydrochloride] | –

The remaining lines, values behind:

Row | Structure (SMILES) | pKi [1] | pKi [2] | leak point pressure (pressure upon leakage of urine) (rats under anesthesia)
17 | CN1Cc2ccsc2C(Oc2cccc3ccccc23)C1 (stereo not shown) [Example 2, 5-Methyl-7-(naphthalen-1-yloxy)-4,5,6,7-tetrahydrothieno[3,2-c]pyridine] | 6.32 | 7.57 | –
18 | CN1Cc2occc2C(Oc2ccc(Cl)c(Cl)c2)C1.Cl (stereo not shown) [Example 21, 4-(3,4-Dichlorophenyloxy)-6-methyl-4,5,6,7-tetrahydrofuro[2,3-c]pyridine hydrochloride] | – | – | raised the leak point pressure
19 | CCN1Cc2sccc2C(Oc2ccc(Cl)c(Cl)c2)C1 (stereo not shown) [Example 24, 4-(3,4-Dichlorophenyloxy)-6-ethyl-4,5,6,7-tetrahydrothieno[2,3-c]pyridine hydrochloride] | 6.56 | 8.02 | –
20 | Cc1cc2c(o1)CN(C)CC2Oc1ccc(Cl)c(Cl)c1 (stereo not shown) [Example 57, 4-(3,4-Dichlorophenyloxy)-2,6-dimethyl-4,5,6,7-tetrahydrofuro[2,3-c]pyridine hydrochloride] | 6.61 | 7.85 | –
21 | CN1Cc2occc2C(Oc2ccc(Br)c(Cl)c2)C1 (stereo not shown) [Example 66, 4-(4-Bromo-3-chlorophenyloxy)-6-methyl-4,5,6,7-tetrahydrofuro[2,3-c]pyridine hydrochloride] | 6.31 | 8.41 | –
22 | Cc1cc2c(o1)CN(C)CC2Oc1ccc(Cl)c2ccccc12 (stereo not shown) [Example 84, 4-(4-Chloronaphthalene-1-yloxy)-2,6-dimethyl-4,5,6,7-tetrahydrofuro[2,3-c]pyridine hydrochloride] | 6.68 | 8.10 | –
23 | Cc1cc2c(s1)CN(C)CC2Oc1ccc(Br)c(Br)c1 (stereo not shown) [Example 98, 4-(3,4-Dibromophenyloxy)-2,6-dimethyl-4,5,6,7-tetrahydrothieno[2,3-c]pyridine hydrochloride] | 6.34 | 8.07 | –
24 | Cc1cc2c(s1)CN(C)CCC2Oc1cccc2ccccc12.Cl (stereo not shown) [Example 102, 2,7-Dimethyl-4-(naphthalen-1-yloxy)-5,6,7,8-tetrahydro-4H-thieno[2,3-c]azepine hydrochloride] | 8.40 | 8.47 | raised the leak point pressure
25 | CN1CCC(Oc2ccc(Cl)c(Cl)c2)c2sccc2C1 (stereo not shown) [Example 108, 8-(3,4-Dichlorophenyloxy)-5-methyl-5,6,7,8-tetrahydro-4H-thieno[3,2-c]azepine hydrochloride] | 7.19 | 8.77 | –
26 | CN1CCc2sccc2C(Oc2cccc3ccccc23)C1 (stereo not shown) [Example 109, 6-Methyl-4-(naphthalen-1-yloxy)-5,6,7,8-tetrahydro-4H-thieno[2,3-d]azepine hydrochloride] | 7.18 | 8.05 | –
27 | Cc1cc2c(s1)CN(C)CCC2Oc1ccc(C(F)(F)F)cc1.Cl (stereo not shown) [Example 133, 2,7-dimethyl-4-[4-(trifluoromethyl)phenyloxy]-5,6,7,8-tetrahydro-4H-thieno[2,3-c]azepine hydrochloride] | – | – | raised the leak point pressure
